Measured values taken from patent publication US20240293416A1, “TREATMENT OF LIVER DISORDERS WITH A THR-ß AGONIST” (Terns Pharmaceuticals, Inc., priority 2021, published 2024).
Blank lines part the entries; values can stand above or below the molecule they belong to.

What was measured:
[1] = test system: SHBG, Apo B and serum lipids; assay: Single ascending dose trial: serum PD biomarkers; type: in vivo, human; conditions: for Apo B Change / SHBG Change: n = 6
Procedure: A single-ascending dose clinical trial of Compound 1 (potassium salt) was performed.
(§1) PK parameters were estimated via noncompartmental methods using Phoenix WinNonlink (Certara, LP, Princeton, NJ). Concentrations of serum pharmacodynamic (PD) biomarkers apolipoprotein B (Apo B) and sex hormone binding globulin (SHBG) were measured using an immunoassay and serum lipids were determined using spectrophotometry.
PD sampling was performed pre-dose, and 48 hours and 72 hours post-dose. Percent change from baseline for PD markers were calculated using an ANCOVA model with percent change from baseline as dependent variable, treatment group as fixed effect, and baseline as covariate. Analyses used observed data only without imputation for missing data.

[2] = Multiple ascending dose trial: pharmacokinetics; type: in vivo, human
Procedure: A multiple-ascending dose clinical trial of Compound 1 was performed.
as §1, with “(See Table 5, FIG. 7.) PK” for “PK”, “Phoenix® WinNonlin®” for “Phoenix WinNonlink”

[3] = pH and solubilizer effect on solubility; type: physicochemical
Procedure: Solubility of Compound 1 (potassium salt) was evaluated at various pH levels.

[4] = Pharmacokinetics of 50 mg capsules with or without SLS in beagle dogs; type: in vivo; conditions: 50 mg capsule with vs without 5 wt % SLS
[5] = pH effect on PK performance in beagle dogs; type: in vivo; conditions: 10 mg capsule, 5% SLS; pentagastrin vs famotidine pre-treatment, n=3 per group
From the text: To determine the pH effect on PK performance, beagle dogs were divided into two groups (n=3 per group).

mouse NASH model = assay: High fat diet + CCl4 mouse NASH model; type: in vivo, C57BL/6J mice
Procedure: C57BL/6J mice were fed a high fat diet for 10 weeks to induce obesity (>38 g BW). Obese mice were injected intraperitoneally (i.p.) twice a week for four weeks with 0.5 μl/g 25% CCl4 (formulated in olive oil) to induce fibrosis, and one group of normal BW mice were injected i.p. twice a week for four weeks with olive oil to serve as a healthy control. […] On CCl4 dosing days, CCl4 was administered at 4 hours post compound or vehicle dosing. On day 27, all animals were fasted for about 16 hours before terminal euthanasia. On day 28, all animals were sacrificed and various biological parameters were analyzed. Total body, liver, heart and brain weight were measured and changes in liver and heart weight were normalized using brain weight.
Liver samples were collected for whole transcriptome analysis by RNA sequencing (RNAseq). RNAseq library (n=5 per group) preparation and sequencing was performed using Illumina standard protocols. Alignment of sequencing reads was performed using STAR aligner software and read counts were estimated using RSEM. Differentially expressed genes (compared to vehicle-treated NASH control mice) were determined using EdgeR software. Gene ontology analysis was performed using Advaita software with fold-change and adjusted p-value cutoffs of >1.5 and <0.05, respectively. Gene ontologies were derived from the Gene Ontology Consortium database (2019 Apr. 26) (Ashburner et al., Gene ontology: Tool for the unification of biology. Nature Genetics 25(1): 25-9 (2000); Gene Ontology Consortium, Creating the Gene Ontology Resource: Design and Implementation. Genome Research 11: 1425-1433 (2001)).

[6] = Multiple ascending doses in healthy subjects with elevated LDL-c: PK; type: in vivo, human; conditions: 1, 3, 6 or 10 mg once daily for 14 days
From the text: Secondary Objectives: Evaluate the PK and PD of Compound 1 in healthy subjects with elevated LDL-c following multiple ascending doses of Compound 1.

BCS classification = type: physicochemical
BCRP = molecular target: T1, BCRP (Homo sapiens, UniProt Q9UNQ0); assay: In vitro transporter inhibition, BCRP; type: in vitro ADME
T1 sequence (Q9UNQ0 1-655): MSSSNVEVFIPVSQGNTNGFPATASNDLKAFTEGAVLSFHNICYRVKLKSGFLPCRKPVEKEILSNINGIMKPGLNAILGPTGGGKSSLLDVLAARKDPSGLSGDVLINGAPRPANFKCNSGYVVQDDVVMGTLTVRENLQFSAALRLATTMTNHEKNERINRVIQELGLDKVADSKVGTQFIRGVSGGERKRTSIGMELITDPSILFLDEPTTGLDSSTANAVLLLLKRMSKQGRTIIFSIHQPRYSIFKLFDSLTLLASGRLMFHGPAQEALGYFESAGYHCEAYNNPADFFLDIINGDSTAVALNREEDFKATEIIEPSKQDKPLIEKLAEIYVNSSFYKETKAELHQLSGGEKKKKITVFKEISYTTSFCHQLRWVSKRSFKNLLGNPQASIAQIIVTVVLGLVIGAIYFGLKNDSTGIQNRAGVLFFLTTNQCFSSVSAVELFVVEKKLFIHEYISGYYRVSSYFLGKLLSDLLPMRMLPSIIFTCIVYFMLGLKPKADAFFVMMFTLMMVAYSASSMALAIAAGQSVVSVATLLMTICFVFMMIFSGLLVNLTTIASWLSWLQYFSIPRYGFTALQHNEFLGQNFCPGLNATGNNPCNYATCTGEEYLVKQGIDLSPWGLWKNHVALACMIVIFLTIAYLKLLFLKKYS

t1/2 ([2]; Day 14, 6 mg QD, N = 6, median): 15.8 h
aqueous solubility ([3]; even in the salt form): very low aqueous solubility
Solubility ([3]; pH 10.0 buffer, 24 h, with 2 wt % SLS, 25° C., potassium salt): 308.2 µg/mL
increase of exposure (Cmax, AUC) by formulation with 5 wt % SLS [4]: more than 70%
pH effect on plasma concentrations [5]: Minimal pH effect
steady state plasma AUC0-∞ sufficient to ensure efficacy (mouse NASH model; preclinical animal models): approximately 3,320 ng*hg/mL
BCS classification (BCS classification): BCS Class IV
SMILES: N#Cc1nn(-c2cc(Cl)c(Oc3n[nH]c(=O)c4ccccc34)c(Cl)c2)c(=O)[nH]c1=O [Compound 1, 2-(3,5-dichloro-4-((4-oxo-3,4-dihydrophthalazin-1-yl)oxy)phenyl)-3,5-dioxo-2,3,4,5-tetrahydro-1,2,4-triazine-6-nitrile]
Apo B Change ([1]; Day 3 after single 3 mg dose): −1.5%
SHBG Change ([1]; Day 3 after single 3 mg dose): 0.20 nmol/L
Apo B Change ([1]; Day 3 after single 10 mg dose): −5.6%
SHBG Change ([1]; Day 3 after single 30 mg dose): 6.0 nmol/L
LDL-c, total cholesterol, and Apo-B ([1]; Day 3 following single dose, similar on Day 4): Dose-dependent decreases
triglyceride levels ([1]; after a single dose): No significant changes
SHBG relative to placebo ([1]; single doses of ≥10 mg): Significant increases
oral bioavailability and PK variability ([2]; multiple doses): good oral bioavailability with low PK variability
liver fibrosis (histology) (mouse NASH model; 3 and 10 mpk, 28 days): significantly reduced liver fibrosis
liver inflammation (histology) (mouse NASH model; 28 days): trend in inflammation reduction
liver steatosis (histology) (mouse NASH model; all doses tested, 28 days): significantly reduced steatosis at all doses tested
serum total cholesterol, triglycerides and ALT (mouse NASH model; all doses tested, 28 days): significantly reduced
expression of genes associated with collagen extracellular matrix and hepatic stellate cell activation (mouse NASH model; liver RNAseq vs NASH control mice): significant effect
liver/brain weight (mouse NASH model; orally once a day for 28 days): significantly reduced
total body weight or heart/brain weight (mouse NASH model; orally once a day for 28 days): no effect
PK dose proportionality and variability [6]: dose-proportional PK with low variability

IC50 (BCRP): 4.39 µM
SMILES: Cn1cc(C(=O)O)c2ccc(C3CCC(OCc4c(-c5c(Cl)cccc5Cl)noc4C4CC4)CC3)cc21 (stereo not drawn) [Compound 2]
